Source: patent US4880820A, “Guanine derivatives” (Merck & Co., Inc., priority 1988, dated 1989)
Values after ≈ are worked out from the molar mass of the structure shown.

Legend:
[1] = system: Herpes simplex virus type 1 (HSV-1), strain Schooler; test: Parenteral (subcutaneous) treatment of Herpes simplex virus type 1 infection in mice; assay type: in vivo, ICR/Ha mice; details: s.c.
Description: (§1) Twenty gram ICR/Ha mice were injected intraperitoneally (ip) with 0.5 ml of a 10^-5 dilution of a stock preparation of Herpes simplex virus type 1 (HSV-1), strain Schooler. This virus challenge infected each animal with approximately 50 to 100 LD50. Starting immediately after virus infection and continuing twice daily for 4 days, each animal was injected subcutaneously in groups of 10 with: 125 μg, 31 μg, 8 μg or 2 μg of compounds A, B or C; or placebo (physiological saline, pH 11.5). All compounds were solubilized in physiological saline, pH 11.5. The mice were observed daily for 15 days at the same time each day and the day of death was recorded for each animal.
Statistical analyses [reference: Liddel, F.D.K., Evaluation of Survival in Challenge Experiments, Microbiol. Rev., 42, 237 (1978)]were performed on survival times transformed by the negative exponential transformation:
t=number of days an animal survived
T=duration of trial (15 days)
A continuity correction was used to account for daily observation:
Within each group, mice surviving through the trial period were assigned equally values of 0.9 and 1.0 to adjust for termination of the trial.
Average survival time per group was calculated from average corrected transformed survival times [fc (t)] as follows:
t avg=[T/log(0.1).[log(1-fc (t)]

[2] = system: Herpes simplex virus type 1 (HSV-1), strain Schooler; test: Oral treatment of intraperitoneal HSV-1 infection of mice (Example 16); assay type: in vivo, ICR/Ha mice
Description: as §1, with “(i.p.)” for “(ip)”, “LD50 s.” for “LD50.”, “7” for “4”, “treated by oral gavage” for “injected subcutaneously”, “with: 250 μg, 125 μg, 8 μg or 2 μg of (S)-9-(2,3-dihydroxy-1-propoxymethyl)guanine; 500 μg,” for “with:”, “racemic 9-(2,3-dihydroxy-1-propoxymethyl)guanine;” for “compounds A, B or C;”
(§2) The statistical analyses were carried out as described in Example 15.

[3] = system: Herpes simplex virus type 1 (HSV-1), strain Schooler; test: Oral treatment of intraperitoneal HSV-1 infection of mice (Example 17); assay type: in vivo, ICR/Ha mice; details: for Percent Survival: at 15 days
Description: Twenty gram ICR/Ha mice were injected intraperitoneally (i.p.) with 0.5 ml of a 10^-5 dilution of a stock preparation of Herpes Simplex virus type 1 (HSV-1), strain Schooler. This virus challenge infected mice with approximately 50 to 100 LD50. Starting immediately after virus infection and continuing twice daily for 7 days, each animal was treated by oral gavage in groups of 10 with: 500 μg, 125 μg, 31 μg or 8 μg of (S)-9-(2,3-dihydroxy-1propoxymethyl)guanine; 500 μg, 125 μg, 31 μg or 8 μg of acyclovir or placebo (physiological saline, pH 11.5). All compounds were solubilized in physiological saline, pH 11.5.
as §2

[4] = system: Herpes simplex virus type 1 (HSV-1), strain Schooler; test: Parenteral (subcutaneous) treatment of Herpes simplex virus type 1 infection in mice; assay type: in vivo, ICR/Ha mice; details: tested not at the same time as A, B, C; for Percent Survival: at 15 days
[5] = system: Herpes simplex virus Type 1 (Schooler); test: Method 1: inhibition of viral induced cytopathology in primary rabbit kidney cell cultures, HSV-1; assay type: cell-based; details: Human alphaherpesvirus 1; HSV-1 (Schooler), primary rabbit kidney cells; total suppression of cytopathology in 50% of cultures; read-out: Minimum Effective Concentration
Description: (§3) Method 1: Confluent monolayers of primary rabbit kidney cell cultures were refed with maintenance medium containing serial dilutions of the test compounds and incubated overnight at 37° C. At each dilution, four cultures were challenged with approximately 10 TCID50 HSV-1, four cultures were challenged with approximately 10 TCID50 HSV-2,and two cultures were left as toxicity controls. Cultures were reincubated at 37° C. and observed for viral induced cytopathology at days 5 and 7. Minimum Effective Concentration (μg/ml) is defined as the concentration of antiviral compound required to totally suppress the development of viral cytopathology in 50% of the infected rabbit kidney cell cultures.

[6] = system: Herpes simplex virus Type 2 (Curtis); test: Method 1: inhibition of viral induced cytopathology in primary rabbit kidney cell cultures, HSV-2; assay type: cell-based; details: Human alphaherpesvirus 2; HSV-2 (Curtis), primary rabbit kidney cells; total suppression of cytopathology in 50% of cultures; read-out: Minimum Effective Concentration
Description: as §3

[7] = system: Herpes simplex virus Type 1 (Schooler); test: Method 2: virus plaque reduction in MRC-5 cells, HSV-1; assay type: cell-based; details: Human alphaherpesvirus 1, MRC5, 72 h; HSV-1 (Schooler), MRC-5 cells, 3 days; 50% reduction of plaque development; read-out: ED50 (the source's name)
Description: Method 2: Confluent monolayers of MRC-5 cells were incubated for one hour at 37° C. with 50-100 plaque forming units of the indicated virus. Following incubation, the cell monolayers were refed with maintenance medium containing 2% methyl cellulose and the chemical agent indicated. Duplicate cultures were incubated with each concentration of the chemical agent tested. Following further incubation for 3 days at 37° C., the monolayers were stained and the developed virus plaques were counted. The concentration (μg/ml) of each chemical agent which reduced plaque development by 50% (ED50) was determined.

[8] = 125 μg/dose twice daily for 4 days, 12.5 mg/kg/day, ^3 (B, acyclovir): not statistically different from placebo
[9] = 125 μg/dose twice daily for 4 days, 12.5 mg/kg/day, at 15 days (acyclovir not at the same time)
[10] = 31 μg/dose twice daily for 7 days, 3.1 mg/kg/day, ^3 (all): not statistically different from placebo
[11] = 31 μg/dose twice daily for 7 days, 3.1 mg/kg/day, at 15 days (acyclovir not at the same time)
[12] = 125 μg/dose twice daily for 7 days, 12.5 mg/kg/day, ^3 (racemate, acyclovir): not statistically different from placebo
[13] = 125 μg/dose twice daily for 7 days, 12.5 mg/kg/day, at 15 days (acyclovir not at the same time)
[14] = 500 μg/dose twice daily for 7 days, 50 mg/kg/day (acyclovir not at the same time)
[15] = 500 μg/dose twice daily for 7 days, 50 mg/kg/day, at 15 days (acyclovir not at the same time)
[16] = 125 μg/dose twice daily for 7 days, 12.5 mg/kg/day
[17] = 500 μg/dose twice daily for 7 days, 50 mg/kg/day
[18] = 2 μg/dose twice daily for 4 days, 0.2 mg/kg/day, ^3 (all): not statistically different from placebo
[19] = 2 μg/dose twice daily for 4 days, 0.2 mg/kg/day, at 15 days
[20] = 8 μg/dose twice daily for 4 days, 0.8 mg/kg/day, ^3 (all): not statistically different from placebo
[21] = 8 μg/dose twice daily for 4 days, 0.8 mg/kg/day, at 15 days
[22] = 31 μg/dose twice daily for 4 days, 3.1 mg/kg/day, ^3 (all): not statistically different from placebo
[23] = 31 μg/dose twice daily for 4 days, 3.1 mg/kg/day, at 15 days

Row | SMILES | Avg. Survival Time [1, 8] [days] | Percent Survival [1, 9] [%] | Avg. Survival Time [2, 10] [days] | Percent Survival [2, 11] [%] | Avg. Survival Time [2, 12] [days] | Percent Survival [2, 13] [%] | Avg. Survival Time [2, 14] [days] | Percent Survival [2, 15] [%] | minimal effective concentration [5] [µg/mL] | minimal effective concentration [6] [µg/mL] | EC50 [7] [µg/mL] | Avg. Survival Time [1, 18] [days] | Percent Survival [1, 19] [%] | Avg. Survival Time [1, 20] [days] | Percent Survival [1, 21] [%] | Avg. Survival Time [1, 22] [days] | Percent Survival [1, 23] [%] | also measured
1 | Nc1nc2c(ncn2COCCO)c(=O)[nH]1 [Acyclovir, 9-(2-hydroxyethoxymethyl)guanine] | 7.0 | 6 | 6.3 | 0 | 6.6 | 0 | 8.2 | 20 |  |  |  |  |  |  |  |  |  | Percent Survival ([2]; 1000 μg/dose, 100 mg/kg/day, at 15 days, tested not at the same time): 60%; Avg. Survival Time ([2]; 1000 μg/dose, 100 mg/kg/day, tested not at the same time): 11.4 days; Avg. Survival Time ([3]; 8 μg/dose twice daily for 7 days, 0.8 mg/kg/day, ^b (all): not statistically different from placebo): 6.1 days; Percent Survival ([3]; 8 μg/dose twice daily for 7 days, 0.8 mg/kg/day): 0%; Avg. Survival Time ([3]; 31 μg/dose twice daily for 7 days, 3.1 mg/kg/day, ^b (all): not statistically different from placebo): 6.5 days; Percent Survival ([3]; 31 μg/dose twice daily for 7 days, 3.1 mg/kg/day): 0%; Avg. Survival Time [3, 16]: 7.6 days; Percent Survival [3, 16]: 10%; Avg. Survival Time [3, 17]: 8.7 days; Percent Survival [3, 17]: 20%; protection over placebo-treated animals, as measured by average survival time ([3]; 12.5 mg/kg/day): conferred significant protection over placebo-treated animals; protection over placebo-treated animals, as measured by average survival time ([3]; 50 mg/kg/day): conferred significant protection over placebo-treated animals; Percent Survival ([4]; 500 μg/dose, 50 mg/kg/day): 0%; Avg. Survival Time ([4]; 500 μg/dose, 50 mg/kg/day): 7.8 days; Percent Survival ([4]; 1000 μg/dose, 100 mg/kg/day): 10%; Avg. Survival Time ([4]; 1000 μg/dose, 100 mg/kg/day): 7.8 days
2 | Nc1nc2c(ncn2COCC(O)CO)c(=O)[nH]1 (racemic) [C, Racemic 9-(2,3-dihydroxy-1-propoxymethyl)guanine] | 8.6 | 20 | 7.6 | 0 | 8.4 | 10 | 10.7 | 20 | 3.1 to 6 | 6 to 12 | 1 (≈ 3.92 µM) | 6.7 | 10 | 6.6 | 0 | 7.2 | 0 | Avg. Survival Time ([2]; 2 μg/dose twice daily for 7 days, 0.2 mg/kg/day, ^3 (all): not statistically different from placebo): 6.9 days; Percent Survival ([2]; 2 μg/dose twice daily for 7 days, 0.2 mg/kg/day, at 15 days): 0%; Avg. Survival Time ([2]; 8 μg/dose twice daily for 7 days, 0.8 mg/kg/day, ^3 (all): not statistically different from placebo): 6.8 days; Percent Survival ([2]; 8 μg/dose twice daily for 7 days, 0.8 mg/kg/day, at 15 days): 0%; protection over placebo-treated animals, as measured by average survival time ([2]; 50 mg/kg/day): conferred significant protection over placebo-treated animals
3 | Nc1nc2c(ncn2COC[C@H](O)CO)c(=O)[nH]1 [B, (R)-9-(2,3-dihydroxy-1-propoxymethyl)guanine] | 7.5 | 10 |  |  |  |  |  |  | 25 | 25 to 50 | 6.2 (≈ 24.3 µM) | 6.0 | 0 | 6.3 | 0 | 6.5 | 10 | 
